Values joined by “and” are separate entries in the source; they are usually repeats but may differ in a detail not shown here. Equal values may be shown once.
Assays:
α2β3 integrin TMD = assay: AraTM assay, α2β3 integrin TMD; format: cell-based; settings: for GFP/OD630, A2b, mean: N=3
p75^NTR TMD = p75^NTR TMD (Homo sapiens, UniProt P08138); assay: 2D NMR (1H-15N TROSY-HSQC) chemical shift perturbation, p75NTR TMD in bicelles; settings: 4 molar excess compound
[1] = system: A875-shp75 melanoma xenograft; assay: Melanoma lung invasion assay, A875-shp75, treatment from one day before cell injection; format: in vivo, SCID mice
Description: Next, to assess the potential inhibitory effects of Np75-4A22 on melanoma cell migration and tissue invasion in vivo, we utilized the highly metastatic human A875 xenograft model. […] Initially, to mimic metastatic dissemination from the primary tumor site, A875-NT or A875-shp75 cells expressing GFP-Luc (for live-monitoring of tumor growth) were injected intravenously in female SCID mice 24 h following a single oral administration of Np75-A422 (200 mg/kg) or drug vehicle alone. Mice received 3 cycles of Np75-A422 (200 mg/kg/day) following a 5 day on and 2 days off drug schedule for a total of 3 weeks (Fig. 8A). Metastatic spread to the lungs was monitored weekly by luciferase activity using the Xenogen IVIS-200 Optical in vivo luciferase imaging system and mice were sacrificed after the third week. […] In addition, assessment of the metastatic spread was also quantified by histological assessment of non-consecutive lung sections stained for human nucleolin to detect the tumor cells. […] In addition, and as expected, high expression of p75^NTR was detected in lung tumors established by A875-NT cells but was negligible in tumors derived from A875-shp75 cells (Fig. EV10).
Eight-week-old female SCID mice (Charles River Laboratories, Shrewsbury, MA, USA) were housed in groups of three to five and maintained on a 12-h light/dark schedule with a temperature of 22 °C ± 1 °C and a relative humidity of 50% ± 5%. Food and water were available ad libitum. This research study was reviewed and approved by the University of Calgary Animal Care Committee (AC22-0054) and McGill University (AUP-JGH-8269) and adheres to established ethical principles and guidelines. A875-GFPLuc (A875-NT) or A875-GFPLuc shp75 (A875-shp75) cells harvested using Puck’s EDTA were resuspended in PBS and injected intravenously into SCID mice (5 × 10^5 cells/200 μl per mouse). Np75-4A22 was dissolved in 0.5% sodium carboxymethyl cellulose (NaCMC) in reverse osmosis H2O and administered by oral gavage at 200 mg/kg/day starting one day prior to intravenous (tail vein) injection of tumor cells and continued for 3 1-week cycles (cycle: 5 days on drug, 2 days off drug). Tumor spread to the lung was monitored weekly by luciferase activity using the Xenogen IVIS-200 Optical in vivo luciferase imaging system as described previously (Lun et al, [2016]) and by immunohistochemistry (IHC) at designated time points. IHC was performed after formalin fixation, paraffin embedding and sectioning of the lungs, using a human-specific mouse polyclonal nucleolin antibody (1:500 dilution) and detected using Dako liquid DAB+ Substrate Chromogen System (Dako: k3468, California, USA) followed by a hematoxylin counterstain (Sigma, Oakville, ON, Canada). Sections were mounted and imaged on an Olympus phase contrast microscope (Olympus Life Science, Tokyo, Japan). For immunofluorescence, sections were stained with anti-human nucleolin and anti-human p75NTR antibodies (1:1000 dilution), subsequently detected with 1:200 dilutions of Alexa Fluor™ 488 Goat anti-Mouse IgG (H + L) Highly Cross-Adsorbed Secondary Antibody and Alexa Fluor™ 568 Goat anti-Rabbit IgG (H + L) Cross-Adsorbed Secondary Antibody. Sections were further stained with DAPI to detect all nuclei. Between each treatment, TBS Automation Wash Buffer (Biocare Medical TWB945M) was employed. Images were taken with LSM800 confocal microscope and ZEN system.

[2] = mouse, in vivo
A875 NT cells = assay: Filopodia per cell (phalloidin staining), A875 NT; format: cell-based, human; settings: for Filopodia per cell, mean of the well: EXP1 NT; for Filopodia per cell, mean of experiment: EXP1-EXP3; for Filopodia per cell, mean of three experiments: mean of EXP1-3
Description: For assessment of actin filaments, A875 cells were plated on glass coverslips in 24-well plate at a confluency of 3 × 10^4 cells/well. One day after plating, the cells were treated with 1 μM or 5 μM Np75-4A22 and NGF (100 ng/ml) or PBS for 24 h. Cells were fixed in 4% paraformaldehyde, permeabilized in 0.1% Triton-X-100, stained with Phalloidin-iFluor 488 (Abcam) at 1:2000 dilution and DAPI for 1 h. Coverslips were mounted and visualized in a laser confocal microscope.

[3] = system: fascin in Triton-insoluble fraction of A875 NT cells; assay: Detergent-insolubility assay of fascin, A875 NT; format: cell-based, human; settings: for Fold change (compared to untreated cells): insoluble/total fascin
Description: A single cell suspension was obtained by trypsinization followed by centrifugation and detergent extraction with lysis buffer (with 0.5% Triton X-100). Then, immediately centrifuged at 8700 g for 3 min. The resulting pellets (containing the Triton X-100-resistant proteins) were suspended in lysis buffer without Triton X-100. In parallel, cells were centrifuged and then directly suspended in lysis buffer. The Triton X-100- resistant proteins and total cell lysates were analyzed by SDS–PAGE and Western blotting with anti-fascin antibody.

[4] = 1 uM 4A22 with 100 ng/ml NGF, A875 NT
[5] = 5 uM 4A22 with 100 ng/ml NGF, A875 NT

Sequence of p75^NTR TMD (P08138 240-274 limits assumed): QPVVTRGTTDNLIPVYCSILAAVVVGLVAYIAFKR

Oc1ccc(-c2cncc(Nc3ccc(Br)c(Cl)c3)n2)cc1 [Div17E5]
GFP/OD630, A2b, single replicates (α2β3 integrin TMD; Div17E5 1 μM): 111 and 92 and 98
GFP/OD630, A2b, mean (α2β3 integrin TMD; Div17E5 1 μM): 100
GFP/OD630, A2b, single replicates (α2β3 integrin TMD; Div17E5 2.5 μM): 89 and 116 and 95
GFP/OD630, A2b, mean (α2β3 integrin TMD; Div17E5 2.5 μM): 100
GFP/OD630, A2b, single replicates (α2β3 integrin TMD; Div17E5 5 μM): 95 and 87 and 112
GFP/OD630, A2b, mean (α2β3 integrin TMD; Div17E5 5 μM): 98
GFP/OD630, A2b, single replicates (α2β3 integrin TMD; Div17E5 10 μM): 81 and 96 and 87
GFP/OD630, A2b, mean (α2β3 integrin TMD; Div17E5 10 μM): 88
GFP/OD630, A2b, single replicates (α2β3 integrin TMD; Div17E5 20 μM): 90 and 98 and 82
GFP/OD630, A2b, mean (α2β3 integrin TMD; Div17E5 20 μM): 90
GFP/OD630, A2b, single replicates (α2β3 integrin TMD; Div17E5 50 μM): 79 and 86 and 94
GFP/OD630, A2b, mean (α2β3 integrin TMD; Div17E5 50 μM): 86

Cc1cccc(-c2cncc(Nc3ccc(Br)c(Cl)c3Cl)n2)c1C [Np75-4A22]
chemical shift perturbations, p75NTR TMD (p75^NTR TMD): Significant chemical shifts
Metastatic Nodules/Lung Section, Average ([1]; A875-shp75, average of 5 non-consecutive slides per individual mouse): 1.2 and 0.8 and 0.4 and 0.2 and 1.8 and 0.6 and 10.6
Cancer Cells/Lung Section, Average per mouse ([1]; A875-shp75, average of 5 slides of one mouse): 7 and 6 and 2.8 and 3.2 and 3.6 and 25.6 and 1.6 and 13 and 132.2
Cancer Cells/Lung Section, group Average ([1]; A875-shp75, average of all mice): 21.6667
Metastatic Nodules/Lung Section, group Average ([1]; A875-shp75, average over all mice of the group): 1.8
Metastatic Nodules/Lung Section, Slide 1 ([1]; A875-shp75, individual mouse, slide 1 of 5 non-consecutive slides/mouse): 2 and 1 and 0 and 6
Metastatic Nodules/Lung Section, Slide 2 ([1]; A875-shp75, individual mouse, slide 2 of 5 non-consecutive slides/mouse): 2 and 0 and 1 and 3 and 14
Metastatic Nodules/Lung Section, Slide 3 ([1]; A875-shp75, individual mouse, slide 3 of 5 non-consecutive slides/mouse): 1 and 0 and 2 and 18
Metastatic Nodules/Lung Section, Slide 4 ([1]; A875-shp75, individual mouse, slide 4 of 5 non-consecutive slides/mouse): 1 and 0 and 2 and 12
Metastatic Nodules/Lung Section, Slide 5 ([1]; A875-shp75, individual mouse, slide 5 of 5 non-consecutive slides/mouse): 0 and 1 and 3
p75NTR-negative lung tumors ([1]; oral 200 mg/kg/day, 3 weeks): not significantly affected
single dose toxicity [2]: No mortality or abnormal clinical signs
Filopodia per cell, mean of the well (A875 NT cells; 1 uM 4A22 + 100 ng/ml NGF): 24.0741 and 41.2222 and 33.1667 and 30.2857
Filopodia per cell, mean of experiment (A875 NT cells; 1 uM 4A22, A875 NT): 30.1580 and 35.6954 and 33.9792
Filopodia per cell, mean of three experiments (A875 NT cells; 1 uM 4A22, A875 NT): 33.2775
Filopodia per cell (Filopodia / cell), single image (A875 NT cells; 1 uM 4A22, A875 NT, per image of a well): 35
Filopodia per cell, mean of well (A875 NT cells; 1 uM 4A22, A875 NT): 25.1429 and 30.1667 and 33.5 and 37.8333 and 34.4167
Filopodia per cell, mean of the well (A875 NT cells; 1 uM 4A22): 33.2292 and 40 and 23.375 and 24.0278
Filopodia per cell, mean of experiment (A875 NT cells; [4]): 32.1872 and 28.1825 and 34.5833
Filopodia per cell, mean of three experiments (A875 NT cells; [4]): 31.6510
Filopodia per cell, mean of well (A875 NT cells; [4]): 24.6905 and 26.2143 and 30.7143 and 34.6667 and 32.8333 and 35 and 35.8333
Filopodia per cell, mean of experiment (A875 NT cells; 5 uM 4A22, A875 NT): 31.8244 and 33.2924 and 31.8750
Filopodia per cell, mean of three experiments (A875 NT cells; 5 uM 4A22, A875 NT): 32.3306
Filopodia per cell, mean of well (A875 NT cells; 5 uM 4A22, A875 NT): 30.0714 and 40.9286 and 30.3571 and 31.8125 and 34.9167 and 27.4167 and 31.1667 and 34
Filopodia per cell, mean of the well (A875 NT cells; 5 uM 4A22): 26.1667 and 28.75 and 43.1667 and 29.2143
Filopodia per cell, mean of experiment (A875 NT cells; [5]): 28.5179 and 33.2679 and 34.0625
Filopodia per cell, mean of three experiments (A875 NT cells; [5]): 31.9494
Filopodia per cell, mean of well (A875 NT cells; [5]): 33.2976 and 34 and 40.1786 and 25.5952 and 29.75 and 31.9167 and 35.9167 and 38.6667
filopodia per cell, compound alone (A875 NT cells; 1 or 5 μM): no effects per se
NGF-induced filopodia per cell (A875 NT cells; 1 or 5 μM, NGF 100 ng/ml): completely abolished the effects of NGF
Toral fascin without background ([3]; 1 μM 4A22, band OD, n1-n3): 39995.1 and 74813.2 and 39347.1
Fold change (compared to untreated cells) ([3]; 1 μM 4A22, n1-n3): 0.751 and 0.708 and 0.695
NGF-increased fascin in detergent insoluble fraction ([3]; 1 μM, NGF 100 ng/ml): blocked this effect
Fold change (compared to untreated cells) ([3]; NGF + 1 μM 4A22, n1-n3): 0.947 and 0.577 and 0.569

Source: publication PMC12514245, “Impaired migration and lung invasion of human melanoma by a novel small molecule targeting the transmembrane domain of death receptor p75^NTR” (EMBO Molecular Medicine, 2025)
